Patent US9804152B1, “Human ex vivo skin model and its use in methods of identifying modulators of skin inflammation” (The Procter & Gamble Company, priority 2012, dated 2017)

What was measured:
Type in all cases: cell-based
[1] = test system: endogenously inflamed ex vivo human skin sample; test: Inhibitors of endogenous inflammation: IL-8/IL-6 secretion by ex vivo skin samples; details: for IL-8 secretion: endogenously inflamed skin sample, without inhibitor about 2,600 pg/ml; for IL-8 secretion / IL-8 expression (secretion): day 3; for IL-8 expression: not induced, untreated 1045 pg/ml; for inhibition of endogenous inflammation, conclusion in words: IL-8 as marker; for fold-regulation in secretion (expression) of IL-6 / fold-regulation in secretion (expression) of IL-8: endogenously inflamed skin; for IL-8 expression (secretion): untreated (endogenous) skin sample
From the text: (§1) This Example describes the materials and methods used in preparing ex vivo skin samples for use according to the methods disclosed herein. Materials used in preparation of ex vivo skin samples for use in the disclosed screening methods included: Dulbecco's Modified Eagle Medium (DMEM) plus Glutamax, antibiotic and antimycotics, 1× phosphate-buffered saline (PBS), 150×15 mm sterile culture dishes, sterile gauze 4×4, disposable safety scalpels, 4 mm disposable biopsy punch, 6-well cell-culture inserts, disinfected tweezers, cotton-tipped applicators, 6-well culture plates, ruled, disinfected cutting mat (12×12), scraper handle, tissue freezing medium, biopsy cassettes, frozen-tissue freezing vessels, 10% formalin, shipping containers for fixed tissue, and biohazard/sharps containers. Media was prepared in advance of the arrival of ex vivo skin. The skin arrived with the dermis (fat) side down on sterile DMEM soaked gauze in a sterile culture dish. The culture dish was taped shut and in a biohazard zip-lock baggie on an ice pack in a secondary container.
(§2) On arrival, the skin was removed from the bag and soaked in 3×DMEM media (3× refers to concentration of antibiotic and antimycotics) and stored at 4° C. for 1 hour. After 1 hour, the skin was removed from the 3×DMEM and rinsed with sterile 1×PBS. The skin was placed in a clean culture dish containing gauze soaked with 1×DMEM. The sample was put in culture the same day as arrival. If necessary, however, the ex vivo skin samples can be stored at 4° C. overnight.
(§3) In preparation for culture, the following was performed: on a cutting mat, the skin was flipped over so that the epidermis was down and the subcutis (fat) was exposed. The fat was removed with a disposable scalpel by carefully grasping one corner of the skin with sterile serrated forceps and scraping the fat away with the blade held at a 45° angle to the skin. After the fat was removed, the surgical edges were cut off with a scalpel using a scraper as a straight edge guide and to hold the skin in place. Using the scraper as a guide, the skin was cut into 1.25 cm (2×2 squares on grid) wide strips using a ruler to measure the width. The strip was rinsed in a 100 mm culture dish containing 1×PBS. The strips were cut into 1.25 cm^2 squares and placed in a 100 mm culture dish on 1×DMEM-soaked gauze until they were put into culture 30 minutes later.
(§4) Culture plates were prepared that included 2.5 ml of media or media with treatment (e.g., a candidate modulator, an inflammation inducer, and/or an inhibitor of inflammation) in each well of a 6-well plate. One Millicell culture insert was added to each well and 100 μl of 1× DMEM was put in the center of each insert membrane. Squares of skin tissue were selected randomly and placed into each of the inserts (one piece of skin per insert), on top of the media on the membrane. The plates were stored at 33° C., with fresh media changes daily. As a control, baseline tissue measurements were collected from excess waste (cryogenics were used for snap-freezing). Baseline biopsy collection included two 4 mm punches for an MTT colorimetric assay (described below); one 4 mm punch was snap-frozen in OCT tissue compound for fresh histology; one 4 mm punch was fixed in 10% formalin and sent out for paraffin embedding. Expression measurements of inflammation marker genes were performed using PCR and primers appropriate to the known sequence of the gene(s) of interest.
(§5) Culturing and treatment of the ex vivo skin model comprised replicates of n=5. Before experimental treatment, compounds (e.g., a candidate modulator, an inflammation inducer, or a suppressor of inflammation) were solubilized in appropriate solvents (including PBS, media, alcohol, and DMSO). Appropriate dilutions were made for treatment and 15 ml of media was used per plate per day for treatment, with 2.5 ml of media per well under the cell culture insert. Media was pre-warmed and changed every day during the experiment.

[2] = test system: induced inflamed ex vivo human skin sample (IL-17 + IL-22); test: Inhibitors of IL-17/IL-22-induced inflammation: IL-8 secretion by ex vivo skin samples; details: for IL-8 expression: induced by IL-17 (200 ng/ml)/IL-22 (20 ng/ml), day 4, induced alone 1798 pg/ml; for inhibition of IL-17/IL-22 induced inflammation, conclusion in words: IL-8 as marker; for IL-8 expression (secretion): IL-17/IL-22-induced inflammation, day 3, induced alone about 3,800 pg/ml
[3] = test system: induced inflamed ex vivo human skin sample (IL-17 + IL-22); test: Inhibitors of IL-17/IL-22-induced inflammation: inflammation marker gene expression in ex vivo skin samples
From the text: as §1, §2, §3, §4
as §5, with “experiment. […]” for “experiment.”

[4] = test system: endogenously inflamed ex vivo human skin sample; test: Inhibitors of endogenous inflammation: inflammation marker gene expression in ex vivo skin samples; details: 10 μM clobetasol
From the text: as §1, §2, §3, §4
as §5, with “experiment. […]” for “experiment.”

[5] = test system: ex vivo human skin sample; test: Inducers of inflammation: inflammation marker secreted into the media by ex vivo skin samples (ELISA); details: IL-1β 10 ng/ml on first four days of eight-day experiment
From the text: as §1, §2
In preparation for culture, the following was performed: on a cutting mat, the skin was flipped over so that the epidermis was down and the subcutis (fat) was exposed. The fat was removed with a disposable scalpel by carefully grasping one corner of the skin with sterile serrated forceps and scraping the fat away with the blade held at a 45° angle to the skin. After the fat was removed, the surgical edges were cut off with a scalpel using a scraper as a straight edge guide and to hold the skin in place. […]

[6] = test system: ex vivo human skin sample; test: Inducers of inflammation: inflammation marker gene expression in ex vivo skin samples (PCR)
From the text: as §1, §2, §3, §4, §5

[7] = endogenously inflamed, 0.6 nM betamethasone, 0.08 μM hydrocortisone, 30 μM ketoprofen, 35 μM arlatone

c1cnc2c(c1)ccc1cccnc12 [1,10-phenanthroline]
IL-8 secretion ([1]; topical 1.2 μg/ml 1,10-phenanthroline): about 900 pg/ml

O=c1cc(-c2ccc(O)cc2)oc2cc(O)cc(O)c12 [apigenin]
IL-8 expression ([2]; 25 μM apigenin): 1276 pg/mL | inhibition of IL-17/IL-22 induced inflammation, conclusion in words [2]: does not appear to function effectively to inhibit induced inflammation | IL-8 expression ([1]; 25 μM apigenin, day 4): 106 pg/mL | inhibition of endogenous inflammation, conclusion in words [1]: functions effectively in inhibiting endogenous inflammation

C[C@H]1C[C@H]2[C@@H]3CCC4=CC(=O)C=C[C@]4(C)[C@@]3(F)[C@@H](O)C[C@]2(C)[C@@]1(O)C(=O)CCl [clobetasol]
IL-6 expression relative to control values ([3]; 10 μM clobetasol with IL-17 (200 ng/ml) and IL-22 (20 ng/ml), induced alone about 6-fold): about 0.3 fold | IL-8 expression relative to the untreated control ([3]; 10 μM clobetasol with IL-17 (200 ng/ml) and IL-22 (20 ng/ml), induced alone about 16-fold): about 3 fold | S100A7 expression relative to the untreated control ([3]; 10 μM clobetasol with IL-17 (200 ng/ml) and IL-22 (20 ng/ml), induced alone about 34-fold): about 26 fold | DEFB4 expression relative to controls ([3]; 10 μM clobetasol with IL-17 (200 ng/ml) and IL-22 (20 ng/ml), induced alone about 800-fold): about 200 fold | gene expression of key inflammatory markers (nine marker genes, FIG. 8), in words ([3]; 10 μM clobetasol, IL-17 (200 ng/ml) + IL-22 (20 ng/ml) driven inflammation): appropriately inhibits gene expression of key inflammatory markers | IL-6 expression level in the presence of the inducers and clobetasol, in words ([3]; 10 μM clobetasol, IL-17 (200 ng/ml) and IL-22 (20 ng/ml)): lower than the IL-6 expression level in untreated skin cells | expression levels of IL-8, IL-6, S100A7 and DEFB4, in words ([3]; 10 μM clobetasol, inflammation induced by IL-17 (200 ng/ml) and IL-22 (20 ng/ml)): significantly reduced expression levels | IL-8 expression (secretion) ([2]; 1 pg/cm^2 topical clobetasol): about 1,100 pg/cm^2 | IL-8 secreted into the media ([2]; 10 μM clobetasol with 200 ng/ml IL-17 and 20 ng/ml IL-22, day 4, induced without inhibitor about 13,600 pg/ml): about 4,400 pg/ml | IL-8 expression ([2]; 10 μM clobetasol): 65 pg/mL | inhibition of IL-17/IL-22 induced inflammation, conclusion in words [2]: functions effectively as an inhibitor of both endogenous and induced inflammation | gene expression of key inflammatory markers (nine marker genes, FIG. 8), in words ([4]; endogenous inflammation): appropriately inhibits gene expression of key inflammatory markers | S100A7 expression, in words [4, 7]: inhibited S100A7 expression | rank ordering of inflammation inhibitors based on IL-8 and IL-6 inhibition levels [4, 7]: most effective inhibitor | reduction in the three markers (IL-6, IL-8, and TNFa), rank ordering of efficacy in words (FIG. 15) [4, 7]: shows the greatest reduction | gene expression of IL-8, IL-6, S100A7 and DEFB4, in words ([4]; topical, day 3 (72 hours), 1.2 μg/ml 1,10-phenanthroline, endogenous inflammation): inhibited expression of IL-8, IL-6 and S100A7 | fold-regulation in secretion (expression) of IL-6 ([1]; 10 μM clobetasol, donor 1 of 5): −3.28 fold | fold-regulation in secretion (expression) of IL-8 ([1]; 10 μM clobetasol, donor 1 of 5): −2.72 fold | fold-regulation in secretion (expression) of IL-6 ([1]; 10 μM clobetasol, donor 2 of 5): −3.55 fold | fold-regulation in secretion (expression) of IL-8 ([1]; 10 μM clobetasol, donor 2 of 5): −2.72 fold | fold-regulation in secretion (expression) of IL-6 ([1]; 10 μM clobetasol, donor 3 of 5): −8.69 fold | fold-regulation in secretion (expression) of IL-8 ([1]; 10 μM clobetasol, donor 3 of 5): −3.68 fold | fold-regulation in secretion (expression) of IL-6 ([1]; 10 μM clobetasol, donor 4 of 5): −5.70 fold | fold-regulation in secretion (expression) of IL-8 ([1]; 10 μM clobetasol, donor 4 of 5): −3.89 fold | fold-regulation in secretion (expression) of IL-6 ([1]; 10 μM clobetasol, donor 5 of 5): −2.20 fold | fold-regulation in secretion (expression) of IL-8 ([1]; 10 μM clobetasol, donor 5 of 5): −1.76 fold | IL-8 expression ([1]; 10 μM clobetasol, day 4): 50 pg/mL | IL-8 secreted into the media ([1]; 10 μM clobetasol, otherwise untreated sample, day 4, untreated about 5,800, 0.01% DMSO about 8,000 pg/ml): about 400 pg/ml | inhibition of endogenous inflammation, conclusion in words [1]: functions effectively as an inhibitor of both endogenous and induced inflammation | IL-8 secretion ([1]; topical 10 μM clobetasol): about 300 pg/ml | IL-8 expression (secretion) ([1]; topical clobetasol 1 μg/cm^2 skin surface, reduction from about 1,200 pg/ml): about 200 pg/ml

C[C@]12CCC(=O)C=C1CC[C@@H]1[C@@H]2[C@@H](O)C[C@@]2(C)[C@H]1CC[C@]2(O)C(=O)CO [hydrocortisone]
rank ordering of inflammation inhibitors based on IL-8 and IL-6 inhibition levels [4, 7]: followed by betamethasone, hydrocortisone, ketoprofen and arlatone | reduction in the three markers (IL-6, IL-8, and TNFa), rank ordering of efficacy in words (FIG. 15) [4, 7]: less robust

CC(C(=O)O)c1cccc(C(=O)c2ccccc2)c1 (centres unmarked) [ketoprofen]
CALML5 expression, in words [4, 7]: slightly inhibiting expression | FLG expression, in words [4, 7]: slightly inhibited expression | rank ordering of inflammation inhibitors based on IL-8 and IL-6 inhibition levels [4, 7]: followed by betamethasone, hydrocortisone, ketoprofen and arlatone | reduction in the three markers (IL-6, IL-8, and TNFa), rank ordering of efficacy in words (FIG. 15) [4, 7]: less robust

S=[Se]=S [selenium sulfide]
IL-8 secretion, in words ([1]; selenium sulfide 0.04-25 μM (0.04, 0.2, 1, 5, 25 μM), endogenous inflammation, dose response): decreased secretion levels of IL-8

IL-1β: pro-inflammatory cytokine used as inducer of inflammation
TNF-α expression (amount of biomarker present in the media) ([5]; increase from about 65 pg/ml): about 120 pg/ml | IL-6 expression (amount of biomarker present in the media) ([5]; increase from an average of about 8.2 ng/ml): ≤ 12.3 ng/mL | induction of inflammation in ex vivo skin samples, in words [6]: shown to induce inflammation in ex vivo skin samples | fold-change in IL-8 expression ([6]; 100 pg/ml IL-1β, after 1 day): 3.28 fold | fold-change in TNF-α expression ([6]; 100 pg/ml IL-1β, after 1 day): −1.21 fold | fold-change in IL-8 expression ([6]; 100 pg/ml IL-1β, after 2 days): 2.58 fold | fold-change in TNF-α expression ([6]; 100 pg/ml IL-1β, after 2 days): 1.34 fold | fold-change in IL-8 expression ([6]; 100 pg/ml IL-1β, after 3 days): 7.88 fold | fold-change in TNF-α expression ([6]; 100 pg/ml IL-1β, after 3 days): 1.37 fold | fold-change in IL-8 expression ([6]; 100 pg/ml IL-1β, after 4 days): 5.47 fold | fold-change in TNF-α expression ([6]; 100 pg/ml IL-1β, after 4 days): 2.67 fold | fold-change in IL-8 expression ([6]; 100 pg/ml IL-1β, after 6 days): 2.42 fold | fold-change in TNF-α expression ([6]; 100 pg/ml IL-1β, after 6 days): −1.29 fold | fold-change in IL-8 expression ([6]; 100 pg/ml IL-1β, after 10 days): 9.02 fold | fold-change in TNF-α expression ([6]; 100 pg/ml IL-1β, after 10 days): 1.19 fold | HMGCR expression relative to untreated controls, at termination ([6]; 100 pg/ml IL-1β, end of 10-day experiment): about 0.8 fold | ceramide synthase 3, increase in expression ([6]; IL-1β, both 10 pg/ml and 100 pg/ml, day 10): ~1.5 fold

IL-17: pro-inflammatory cytokine used as inducer of inflammation
induction of inflammation in ex vivo skin samples, in words [6]: shown to induce inflammation in ex vivo skin samples

zinc pyrithione [ZPT]
IL-8 expression (secretion) ([2]; 0.4 μg/cm^2 topical ZPT): about 2,300 pg/ml | inhibition of IL-17/IL-22 induced inflammation, conclusion in words [2]: did inhibit IL-17. IL-22 induced inflammation | inhibition of endogenous inflammation, conclusion in words [1]: did not significantly inhibit endogenous inflammation | IL-8 expression (secretion) ([1]; topical 0.4 μg/cm^2 zinc pyrithione, without inhibitor about 1,200 pg/ml): about 2,000 pg/ml
